Measurements from US20230321086A1, “METHODS AND MATERIALS FOR INHIBITING NICOTINAMIDE PHOSPHORIBOSYLTRANSFERASE ACTIVITY” (Universiy of Pittsburgh - Of the Commonwealth System of …, priority 2020, published 2023).

Tested on: A431 cells
Assay: Assay for total NADH and NAD+ measurements in cells
Assay type: cell-based
Design: C: change in NAD levels in response to test compound, shown as % of NAD activity in the absence of test compound: concentration or dose not given beside the values
Conditions: percent of NAD level of untreated control cells (100 = no change)
Protocol: 2,000 cells/well and, at the same time, test compounds dissolved in media at the desired concentration were added to each well. The treated cells were incubated overnight in C02 incubator. The cells were washed 6 times with PBS with 1 mM CaCl2) and 1 mM MgCl2. In the last wash, 10 μL of PBS with 1 mM CaCl2) and 1 mM MgCl2 per well were left in each well. Immediately thereafter, 10 μL 0.4% dodecyltrimethylammonium bromide (DTAB) in phosphate buffer pH 8.0 as added, and the plates were shaked at 1000 rpm for 5 minutes. 60 μL reaction mix was added, and fluorescence at Ex/Em 530/585 was immediately monitored. A linear increase should be achieved with 8 cycles every 92 seconds, 10 number of flashes/well/cycle. The reaction mix was prepared per the following table, respecting the amount and order in which each component was added:
All assays were performed in A431 cells. Referring to the tables below, activity: “+” ≥25 μM, “++” ≥1 μM and <25 μM, and “+++”<1 μM.
In each table header, A: NAMPT enzyme inhibitory activity, IC50 (μM); B: Cellular NAD inhibitory activity, IC50 (μM); and C: change in NAD levels in response to test compound, shown as % of NAD activity in the absence of test compound. […] A percentage of 100 percent would indicate no increase or decrease in NAD levels as compared to that measured for untreated control cells, while a percentage of 50 percent would indicate a decrease in NAD levels of 50 percent as compared to that measured for untreated control cells.

SMILES | C: change in NAD levels in response to test compound, shown as % of NAD activity in the absence of test compound
CN1CCN(C(=O)c2ccc3nc(-c4ccc(F)cc4)c(-c4ccc(OC(F)(F)F)cc4)nc3c2)CC1 [BC19399] | 92%
CN1CCN(C(=O)c2cccc3nc(-c4ccc(F)cc4)c(-c4ccc(F)cc4)nc23)CC1 [BC19400] | 76%
Cn1cc(-c2cnc3nc(-c4ccc(F)cc4)c(-c4ccc(F)cc4)nc3c2)nn1 [BC19401] | 55%
CCCn1cc(-c2cnc3nc(-c4ccc(F)cc4)c(-c4ccc(F)cc4)nc3c2)nn1 [BC19402] | 64%
Fc1ccc(-c2nc3cccnc3nc2-c2ccc(F)cc2)cc1 [BC19403] | 68%
OCCn1ncc(-c2ccc3nc(-c4ccc(F)cc4)c(-c4ccc(F)cc4)nc3c2)n1 [BC19404] | 65%
CN1CCN(C(=O)c2ccc3nc(-c4ccc(F)cc4F)c(-c4ccccc4)nc3c2)CC1 [BC19405] | 69%
C#CCNC(=O)c1ccc2nc(-c3ccc(F)cc3F)c(-c3ccccc3)nc2c1 [BC19406] | 93%
CN1CCN(C(=O)c2cnc3nc(-c4ccc(F)cc4)c(-c4ccc(F)cc4)nc3c2)CC1 [BC19408] | 95%
CN1CCN(C(=O)c2ccc3nc(-c4ccc(OC(F)(F)F)cc4)c(-c4ccc(OC(F)(F)F)cc4)nc3c2)CC1 [BC19445] | 14%
CNC(=O)c1ccc2nc(-c3ccc(OC(F)(F)F)cc3)c(-c3ccc(OC(F)(F)F)cc3)nc2c1 [BC19447] | 50%
Oc1ccc2nc(-c3ccc(F)cc3)c(-c3ccc(F)cc3)nc2n1 [BC19448] | 78%
CN1CCN(C(=O)c2ccc3nc(-c4ccc(Cl)cc4)c(-c4ccc(Cl)cc4)nc3c2)CC1 [BC19450] | 78%
C#CCNC(=O)c1ccc2nc(-c3ccc(Cl)cc3)c(-c3ccc(Cl)cc3)nc2c1 [BC19451] | 57%
O=C(NCCO)c1ccc2nc(-c3ccc(OC(F)(F)F)cc3)c(-c3ccc(OC(F)(F)F)cc3)nc2c1 [BC19453] | 88%
COCC(=O)N1CCC(C(=O)Nc2ccc3nc(-c4ccc(F)cc4)c(-c4ccc(F)cc4)nc3c2)CC1 [BC19494] | 52%
Cn1cnnc1-c1cnc2nc(-c3ccc(F)cc3)c(-c3ccc(F)cc3)nc2c1 [BC19496] | 95%
O=C(NCCN1CCOCC1)c1ccc2nc(-c3ccc(Cl)cc3)c(-c3ccc(Cl)cc3)nc2c1 [BC19497] | 49%
CN1CCN(C(=O)c2ccc3nc(-c4cccc(N(C)C)c4)c(-c4cccc(N(C)C)c4)nc3c2)CC1 [BC19498] | 66%
O=C(NCCN1CCOCC1)c1ccc2nc(-c3ccc(OC(F)(F)F)cc3)c(-c3ccc(OC(F)(F)F)cc3)nc2c1 [BC19503] | 43%
O=S(=O)(NCCN1CCOCC1)c1ccc2nc(-c3ccc(F)cc3)c(-c3ccc(F)cc3)nc2c1 [BC19504] | 58%

SMILES | C: change in NAD levels in response to test compound, shown as % of NAD activity in the absence of test compound
O=S(=O)(NC1CC1)c1ccc2nc(-c3ccc(F)cc3)c(-c3ccc(F)cc3)nc2c1 [BC19505] | 30%
O=S(=O)(NCC1CC1)c1ccc2nc(-c3ccc(F)cc3)c(-c3ccc(F)cc3)nc2c1 [BC19506] | 66%
COCCNS(=O)(=O)c1ccc2nc(-c3ccc(F)cc3)c(-c3ccc(F)cc3)nc2c1 [BC19507] | 53%
O=S(=O)(NCCCN1CCOCC1)c1ccc2nc(-c3ccc(F)cc3)c(-c3ccc(F)cc3)nc2c1 [BC19508] | 28%
O=S(=O)(NCCCO)c1ccc2nc(-c3ccc(F)cc3)c(-c3ccc(F)cc3)nc2c1 [BC19509] | 66%
CN1CCN(c2ccc3nc(-c4ccc(F)cc4)c(-c4ccc(F)cc4)nc3c2)CC1 [BC19510] | 41%
CC(=O)N1CCN(c2ccc3nc(-c4ccc(F)cc4)c(-c4ccc(F)cc4)nc3c2)CC1 [BC19511] | 26%
N#Cc1ccc2nc(-c3ccc(F)cc3)c(-c3ccc(F)cc3)nc2n1 [BC19512] | 85%
O=C(c1ccc2nc(-c3ccc(F)cc3)c(-c3ccc(F)cc3)nc2c1)N1CCN(CCO)CC1 [BC19513] | 49%
O=C(c1ccc2nc(-c3ccc(F)cc3)c(-c3ccc(F)cc3)nc2c1)N1CCN(CCOCCO)CC1 [BC19514] | 73%
COCCCNS(=O)(=O)c1ccc2nc(-c3ccc(F)cc3)c(-c3ccc(F)cc3)nc2c1 [BC19554] | 52%
CN(C)CCNS(=O)(=O)c1ccc2nc(-c3ccc(F)cc3)c(-c3ccc(F)cc3)nc2c1 [BC19555] | 1%
CCNS(=O)(=O)c1ccc2nc(-c3ccc(F)cc3)c(-c3ccc(F)cc3)nc2c1 [BC19556] | 44%
O=S(=O)(NCc1cccnc1)c1ccc2nc(-c3ccc(F)cc3)c(-c3ccc(F)cc3)nc2c1 [BC19557] | 63%
O=S(=O)(NCc1ccccn1)c1ccc2nc(-c3ccc(F)cc3)c(-c3ccc(F)cc3)nc2c1 [BC19559] | 42%
O=C1CCCN1CCCNS(=O)(=O)c1ccc2nc(-c3ccc(F)cc3)c(-c3ccc(F)cc3)nc2c1 [BC19560] | 51%
CN1CCN(CCCNS(=O)(=O)c2ccc3nc(-c4ccc(F)cc4)c(-c4ccc(F)cc4)nc3c2)CC1 [BC19561] | 24%
CN(C)CCCNS(=O)(=O)c1ccc2nc(-c3ccc(F)cc3)c(-c3ccc(F)cc3)nc2c1 [BC19562] | 1%
CCNC(=O)Nc1ccc2nc(-c3ccc(F)cc3)c(-c3ccc(F)cc3)nc2c1 [BC19563] | 90%
CN(C)CCNC(=O)Nc1ccc2nc(-c3ccc(F)cc3)c(-c3ccc(F)cc3)nc2c1 [BC19564] | 5%
COCCNC(=O)Nc1ccc2nc(-c3ccc(F)cc3)c(-c3ccc(F)cc3)nc2c1 [BC19565] | 65%
